# According to US20230097226A1, “GENERATING AORTA-GONAD-MESONEPHROS-LIKE HEMATOPOIETIC CELLS FROM HUMAN PLURIPOTENT STEM CELLS UNDER A DEFINED CONDITION” (Purdue Research Foundation, priority 2020, published 2023):
# Legend:
# Format in all cases: cell-based, human
# hPSCs = test: Hemogenic endothelium differentiation of hPSCs, flow cytometry and immunostaining for CD34/SOX17; conditions: early CHIR treatment; day 5 cultures
# From the text: Producing hemogenic endothelium (HE) from hPSCs, marked by the expression of typical endothelial marker VE-cadherin, CD31, and CD34, is a vital step towards hematopoietic cell generation. We've previously developed a robust protocol to generate homogenous CD34+CD31+HE from hPSCs via small-molecule activation of Wnt signaling (FIG. 1A-B). Since simultaneous modulation of Wnt and Activin signaling yields aorta-like SOX17+ vessels in AGM that give rise to hematopoietic cells, we speculated that our small molecule-induced CD34+CD31+ cells are also SOX17+, which was confirmed by flow cytometry and immunostaining analysis of SOX17 expression (FIG. 1C-D). […] Importantly, the resulting CD34+SOX17+AGM-like HE didn't express CD235a, markers of primitive hematopoiesis.
# 19-9-11, 19-9-7, 6-9-9, H1, H9 and H13 were obtained from WiCell and maintained on Matrigel- or iMatrix 511-coated plates in mTeSR plus or mTeSR1 medium according to a previously published method. RUES2 were kindly provided by Dr. Ali H. Brivanlou at the Rockefeller University. […]
# Floating hematopoietic cells were gently pipetted and filtered through a 70 or 100 μm strainer sitting on a 50 ml tube. […] The cells were stained with appropriate conjugated antibodies (Table 1) for 25 mins at room temperature in dark, and analyzed in Accuri C6 plus flow cytometer (Beckton Dickinson) after washing once with BSA-containing PBS−/−solution. […]
# [1] = system: hPSC-derived hemogenic endothelium; test: Hematopoietic specification of hPSC-derived hemogenic endothelium, flow cytometry for CD45; conditions: for yield of resulting stem cells: day 12, differentiation factor applied at hematopoietic specification stage; for generation of CD45+ hematopoietic cells: screening of chemicals and cytokines, feeder-free conditions, 19-9-11 iPSC-derived HE; for yield and purity of CD45+ hematopoietic cells on retrieval from the differentiation medium: day 15 cultures, SCF and FLT3L withdrawn; for efficiency of generating AGM-like hematopoietic stem cells when used in place of SB431542: Day 4-6 of differentiation
# Method: While OP9-DLL4 stromal cells have been used to efficiently induce hematopoietic and immune cells from our small-molecule induced HE [32], the undefined nature of feeder cells may lead to inaccurate investigation of signaling pathways during hematopoiesis. Thus, to develop a chemically-defined hematopoietic specification platform, screening of known chemicals and cytokines was performed on our hPSC-derived AGM-like HE under feeder-free conditions (FIG. 2A). […] Wnt-059 and SB-induced hematopoiesis were also applicable to H9 and 6-9-9 hPSCs (FIG. 2E).
# 19-9-11, 19-9-7, 6-9-9, H1, H9 and H13 were obtained from WiCell and maintained on Matrigel- or iMatrix 511-coated plates in mTeSR plus or mTeSR1 medium according to a previously published method. RUES2 were kindly provided by Dr. Ali H. Brivanlou at the Rockefeller University. The Kolf2 and CT2 data were acquired in Dr. Yang Yang's lab and Dr. Ourania Andrisani's lab at Purdue. H9 7TGFβ Wnt reporter and 19-9-11 ischcat-1 as well as ischcat-2 lines were kindly provided by Dr. Sean Palecek at University of Wisconsin-Madison. To make hematopoietic cells, hPSCs were dissociated with 1 mM EDTA and seeded onto iMatrix 511 or Matrigel-coated 6-, 12- or 24-well plate at a cell density between 10,000 and 80,000 cell/cm^2 in mTeSR plus or mTeSR1 medium with 5 μM Y27632 for 24 hours (day-1). At day 0, cells were treated with 6 μM CHIR99021 (CHIR) in DMEM medium supplemented with 100 ug/ml ascorbic acid (DMEM/Vc), followed by a medium change with LasR basal medium at day 1, day 2 and day 3. For female hPSC lines, 50 ng/mL VEGF was added to the medium from day 2 to day 4. At day 4, medium was replaced by Stemline II medium (Sigma) supplemented 10 μM SB431542. After 2 days, SB431542-containing medium was aspirated and cells were maintained in Stemline II medium with or without 50 ng/mL SCF and FLT3L. At day 9 and every 2 to 3 days afterwards, aspirate half medium and add fresh Stemline II medium with or without SCF/FLT3L until analysis. Other media used to induce hematopoietic cells were illustrated in FIG. 8B.
# Floating hematopoietic cells were gently pipetted and filtered through a 70 or 100 μm strainer sitting on a 50 ml tube. The cells were then pelleted by centrifugation and washed once in PBS−/−solution with 1% bovine serum albumin (BSA). The cells were stained with appropriate conjugated antibodies (Table 1) for 25 mins at room temperature in dark, and analyzed in Accuri C6 plus flow cytometer (Beckton Dickinson) after washing once with BSA-containing PBS−/−solution. FlowJo software was used to process collected flow data.
# Wnt signaling = test: RT-PCR of day 6 HE samples (WNT3A, AXIN2) and 7TGP Wnt reporter line; conditions: for transcriptional activity of endogenous Wnt signaling: H9 7TGP Wnt reporter line, day 6, eGFP flow cytometry; for expression of WNT3A and AXIN2: RT-PCR, day 6 HE samples
# Method: Cells cultured on 24-well plate were collected and lysed in 500 μL TRIzol™ reagent (Invitrogen). Total RNA were then prepared with the Direct-zol RNA miniprep kit (Zymo) with in-column DNase treatment following the manufacture's instruction. cDNA was reverse transcribed from 1 μg RNA with ProtoScript First Strand cDNA Synthesis Kit (NEB) and used for RT-PCR with GoTaq Green Master Mix (Promega).
molecule,measurement,setting,value
Cc1c[nH]c(-c2cnc(NCCNc3ccc(C#N)cn3)nc2-c2ccc(Cl)cc2Cl)n1 [CHIR99021],CD34+SOX17+ population obtained,hPSCs,homogenous CD34+SOX17+ population
same,effect on hematopoiesis induced by SB,[1]; activation of Wnt signaling together with SB,blocked
NC(=O)c1ccc(-c2nc(-c3ccc4c(c3)OCO4)c(-c3ccccn3)[nH]2)cc1 [SB431542],CD45+ hematopoietic cells,"[1]; SB treatment day 4 to 6, read on day 12, 19-9-11 iPSCs",more than 40%
same,yield of resulting stem cells,[1],40.9%
same,generation of CD45+ hematopoietic cells,[1],significantly enhanced
same,transcriptional activity of endogenous Wnt signaling,Wnt signaling,low transcriptional activity
same,expression of WNT3A and AXIN2,Wnt signaling,low expression
Cc1cc(-c2ccc(CC(=O)Nc3ccc(-c4cccnc4)cc3)cc2)ccn1 [Wnt-059],generation of CD45+ hematopoietic cells,[1],significantly induced
same,transcriptional activity of endogenous Wnt signaling,Wnt signaling,low transcriptional activity
same,expression of WNT3A and AXIN2,Wnt signaling,low expression
heparin,promotion of hematopoietic cell production,[1],work well
same,yield of resulting stem cells,[1],20.6%
stem cell factor [SCF],yield and purity of CD45+ hematopoietic cells on retrieval from the differentiation medium,[1],reduced both the yield and purity
thrombopoietin [TPO],promotion of hematopoietic cell production,[1],work well
same,yield of resulting stem cells,[1],30.4%
"FMS-like tyrosine kinase 3 ligand (protein, UniProt P49771 27-235, looked up, Recombinant Human Flt3-Ligand, Peprotech #300-19) Fms-related tyrosine kinase 3 …: TQDCSFQHSPISSDFAVKIRELSDYLLQDYPVTVASNLQDEELCGGLWRLVLAQRWMERLKTVAGSKMQGLLERVNTEIHFVTKCAFQPPPSCLRFVQTNISRLLQETSEQLVALKPWITRQNFSRCLELQCQPDSSTLPPPWSPRPLEATAPTAPQPPLLLLLLLPVGLLLLAAAWCLHWQRTRRRTPRPGEQVPPVPSPQDLLLVEH",yield and purity of CD45+ hematopoietic cells on retrieval from the differentiation medium,[1],reduced both the yield and purity
"IL-16: cytokine that could be used in place of SB431542, lower efficiency (protein, UniProt Q14005 1212-1332, looked up) Interleukin-16: SAASASAASDVSVESTAEATVCTVTLEKMSAGLGFSLEGGKGSLHGDKPLTINRIFKGAASEQSETVQPGDEILQLGGTAMQGLTRFEAWNIIKALPDGPVTIVIRRKSLQSKETTAAGDS",efficiency of generating AGM-like hematopoietic stem cells when used in place of SB431542,[1],lower efficiency
"colony-stimulating factor 3 (protein, UniProt P09919 31-207, looked up) Granulocyte …: TPLGPASSLPQSFLLKCLEQVRKIQGDGAALQEKLVSECATYKLCHPEELVLLGHSLGIPWAPLSSCPSQALQLAGCLSQLHSGLFLYQGLLQALEGISPELGPTLDTLQLDVADFATTIWQQMEELGMAPALQPTQGAMPAFASAFQRRAGGVLVASHLQSFLEVSYRVLRHLAQP",efficiency of generating AGM-like hematopoietic stem cells when used in place of SB431542,[1],lower efficiency
